From patent EP4108244A1, “SS-LACTAM ANTIBIOTIC WITH SIGNIFICANT ACTIVITY AGAINST CANCER E.G. COLON MALIGNANCIES” (priority 2021, dated 2022)
Marks after values point to notes of the source that are not given here.

Key:
HCT-116 cells [1] = assay: Caspase-3/7 activity assay; format: cell-based, human; settings: combined with 5-FU 8 µM, 48 and 72h, CFT 100 µg/ml, CFP 50 µg/ml
Experimental: Caspase-3/7 activity was measured 48 h and 72 h post-treatment according to the manufacturer's protocol (Caspase-Glo-3/7 Assay, Promega Corp, Madison, WI, USA). Briefly, equal volume from treated cells and caspase-3/7 mixture were incubated at room temperature for 3 h and the luminescence was measured by a microplate reader.

HCT-116 cells [2] = assay: Xenograft model of colon cancer cells, tumor growth; format: in vivo, NOD/SCID mice
Experimental: Twelve NOD/SCID mice were randomly distributed into two groups (6 mice/group). HCT-116 colon cancer cells (3.5 million) suspended in sterile physiological solution (0.9% NaCl) were injected subcutaneously into the flank of 4 to 6-week old mice. Animals were kept in a light- and temperature-controlled environment and provided with food and water ad libitum. The tumor size was monitored and determined three times per week using a sterile Vernier caliper. Tumor volume was calculated by the following formula: Volume=π/6^∗(length × width × height). […] Growth delay was assessed by comparing the size of tumors in treated animals to those of control animals. Ethical approval was obtained before the beginning of the experiments.

DLD-1 cells [3] = assay: MTT metabolic activity assay; format: cell-based, human
Experimental: MTT assay was used to assess the proliferation rate of HCT-116 and DLD-1 cells. In this assay the ability of metabolically active cells to convert tetrazolium salt into a blue formazan product is measured. The absorption of the dissolved formazan was quantified at 540 nm by an ELISA reader (Bio-Rad iMark Microplate Reader).
Cells were plated at 2^∗104cells/ml in 96-well plates and incubated overnight. […] Metabolic activity of the cells was studied using the MTT assay that measures the ability of metabolically active cells to convert tetrazolium salt into a blue formazan product, the absorbance of which is recorded at 540 nm by an ELISA reader (Bio-Rad iMark Microplate Reader).

DLD-1 cells [4] = assay: Antibiotics' uptake by the cells, LC-MS/MS; settings: for Concentration of CFT, Lysate / Concentration of CFT, Supernatant: CFT 100 µg/ml alone or + 5-FU 16 µM
Experimental: (§1) This step was repeated three times and cell homogenate were vortexed at high-speed prior extraction. 40 µl from each supernatant and cell suspension were combined with 200 µl of internal standard working solution prepared in ice-cold methanol. Samples were then centrifuged and 100 µl of the supernatant were diluted with 400 µl water in glass vials prior analysis with LC-/MS/MS.

HCT-116 cells [5] = assay: Antibiotics' uptake by the cells, LC-MS/MS; settings: for Concentration of CFT, Lysate / Concentration of CFT, Supernatant: CFT 100 µg/ml alone or + 5-FU 8 µM
Experimental: as §1

[6] = Body weight and survival in the xenograft model; format: in vivo, NOD/SCID mice
Experimental: Twelve NOD/SCID mice were randomly distributed into two groups (6 mice/group). HCT-116 colon cancer cells (3.5 million) suspended in sterile physiological solution (0.9% NaCl) were injected subcutaneously into the flank of 4 to 6-week old mice. Animals were kept in a light- and temperature-controlled environment and provided with food and water ad libitum. The tumor size was monitored and determined three times per week using a sterile Vernier caliper. Tumor volume was calculated by the following formula: Volume=π/6^∗(length × width × height). Once the tumor size reached seven mm^3, mice were treated three times per week for 21 days with intraperitoneal injections of vehicle (control group) or ceftazidime (10 mg/mouse). Growth delay was assessed by comparing the size of tumors in treated animals to those of control animals. Ethical approval was obtained before the beginning of the experiments.

RAW 264.7 cells = assay: MTT metabolic activity assay on macrophages; format: cell-based, murine
Experimental: Cells were plated at 2^∗104cells/ml in 96-well plates and incubated overnight. The following day, cells were treated in triplicate with Ceftazdime or 5-fluorouracil for 24-48 h, depending on the cell line used. Metabolic activity of the cells was studied using the MTT assay that measures the ability of metabolically active cells to convert tetrazolium salt into a blue formazan product, the absorbance of which is recorded at 540 nm by an ELISA reader (Bio-Rad iMark Microplate Reader).

DLD-1 cells [7] = assay: Cell cycle distribution, propidium iodide staining; format: cell-based, human; settings: for accumulation of dead cells in the pre-G1 phase vs. control: CFT alone
Experimental: Propidium iodide (PI) staining was used to evaluate the effect of the different treatments on the cell cycle. […] 48 h and 72 h post-treatment, collected cells were fixed with ice-cold ethanol (70%) and stored at - 20 °C for at least 2 h. Fixed cells, which were washed with PBS and incubated at 37 °C for 1 h with 50 µl RNase (1 mg/ml) (Sigma Aldrich, Germany), were stained for 15 minutes with PI (Molecular Probes, Eugene, Oregon, USA). Cell cycle was monitored using BD FACSDiva™ and the percentage of cells in the different phases of the cell cycle (pre-Gi, G0/G1, S, and G2/M) phases was determined using BD FACSDiva™ Software.
Propidium iodide (PI) staining was used to evaluate the effect of the different treatments (Ceftazidime (100 µg/ml) or 5-Fluorouracil (16 µM)) on the cell cycle profile of DLD-1 cells. Briefly, DLD-1 cells were plated at 5^∗104/ml and treated for 48 h and 72 h. Collected cells were fixed with ice-cold ethanol (70%) and stored at -20°C for at least 2 h. Fixed cells, which were washed with PBS and incubated at 37°C for 1 h with 50 µl RNase (1 mg/ml) (Sigma Aldrich, Germany), were stained for 15 minutes with PI (Molecular Probes, Eugene, Oregon, USA). Cell cycle was monitored using BD FACSDiva™ and the percentage of cells in the different phases of the cell cycle (pre-Gi, G0/G1, S, and G2/M) phases was determined using BD FACSDiva™ Software.

[8] = three weeks post-treatment, 10mg/mouse intraperitoneal three times per week
[9] = 48 h, CFT 100 µg/mL, CFP 50 µg/mL, 5-FU 16 µM, alone or combined, mean ± SE
[10] = 72 h, CFT 100 µg/mL, CFP 50 µg/mL, 5-FU 16 µM, alone or combined, mean ± SE

CC(C)(O/N=C(\C(=O)N[C@@H]1C(=O)N2C(C(=O)[O-])=C(C[n+]3ccccc3)CS[C@H]12)c1csc(N)n1)C(=O)O [CFT, (6R,7R)-7-[[(2Z)-2-(2-amino-1,3-thiazol-4-yl)-2-(2-carboxypropan-2-yloxyimino)acetyl]amino]-8-oxo-3-(pyridin-1-ium-1-ylmethyl)-5-thia-1-azabicyclo[4.2.0]oct-2-ene-2-carboxylate]
effect on 5-FU-induced apoptosis (caspase 3/7, in words) (HCT-116 cells [1]): antagonized 5-FU-induced apoptosis | tumor growth after stopping treatment (in words) (HCT-116 cells [2]; mice exposed for three weeks, then treatment stopped): the tumor did not grow further | inhibition of tumor volume vs. control group (HCT-116 cells [2]; [8]): 95% | tumor size (volume of xenografts) (HCT-116 cells [2]; [8]): 45.3 mm^3 | inhibition of tumor volume, already established tumors (HCT-116 cells [2]; treatment started when tumor volume was around 990 mm^3, vs. control untreated mice): around 50% | inhibitory effect vs. control untreated cells (metabolic activity) (DLD-1 cells [3]; 48 h post-treatment, 5-Fluorouracil 16µM): 18% | metabolic activity (in words) (DLD-1 cells [3]; CFT alone (100 µg/ml), 72 h post-treatment): significant decrease in the metabolic activity | Concentration of CFT, Lysate (DLD-1 cells [4]; 2 h): 0.024 ± 0.003 | Concentration of CFT, Supernatant (DLD-1 cells [4]; 2 h): 100.000 ± 2.970 | Concentration of CFT, Lysate (DLD-1 cells [4]; 4 h): 0.026 ± 0.002 | Concentration of CFT, Supernatant (DLD-1 cells [4]; 4 h): 97.073 ± 5.728 | Concentration of CFT, Lysate (DLD-1 cells [4]; 6 h): 0.033 ± 0.003 | Concentration of CFT, Supernatant (DLD-1 cells [4]; 6 h): 91.335 ± 7.637 | Concentration of CFT, Lysate (DLD-1 cells [4]; 8 h): 0.032 ± 0.001 | Concentration of CFT, Supernatant (DLD-1 cells [4]; 8 h): 98.126 ± 5.940 | average uptake by the cells (DLD-1 cells [4]; up to 8h): around 0.02% | uptake of CFT (DLD-1 cells [4]; up to 8 h, CFT 100 µg/ml): 0.019-0.025% | Concentration of CFT, Lysate (HCT-116 cells [5]; HCT-116 cells, 2 h): 0.047 ± 0.003 | Concentration of CFT, Supernatant (HCT-116 cells [5]; HCT-116 cells, 2 h): 96.900 ± 3.818 | Concentration of CFT, Lysate (HCT-116 cells [5]; HCT-116 cells, 4 h): 0.066 ± 0.012 | Concentration of CFT, Supernatant (HCT-116 cells [5]; HCT-116 cells, 4 h): 105.000 ± 4.168 | Concentration of CFT, Lysate (HCT-116 cells [5]; HCT-116 cells, 6 h): 0.056 ± 0.001 | Concentration of CFT, Supernatant (HCT-116 cells [5]; HCT-116 cells, 6 h): 96.750 ± 8.697 | Concentration of CFT, Lysate (HCT-116 cells [5]; HCT-116 cells, 8 h): 0.053 ± 0.010 | Concentration of CFT, Supernatant (HCT-116 cells [5]; HCT-116 cells, 8 h): 88.900 ± 8.326 | uptake of CFT (HCT-116 cells [5]; HCT-116 cells, up to 8 h, CFT 100 µg/ml): 0.047-0.066% | average uptake in HCT-116 cells compared to DLD-1 cells (HCT-116 cells [5]; up to 8h): 2 folds | uptake in HCT-116 cells compared to DLD-1 cells (HCT-116 cells [5]; up to 8 h, CFT 100 µg/ml): ~2.5 fold | weight lost ([6]; after three weeks of treatment): 6.8% | body weight ([6]; after three weeks of treatment, 10 mg/mouse): 19.8 g | average weight of the mice ([6]; day of the first treatment): 21.3 g | mortality (in words) ([6]; three weeks of treatment): none of the animals died | protective effect on body weight ([6]; vs. control animals, three weeks): 58% | metabolic activity of macrophages (in words) (RAW 264.7 cells): restored to control untreated cells | percentage of cells in G0/G1 (DLD-1 cells [7]; [9]): 52.6 ± 3.3% | percentage of cells in Pre G1 (DLD-1 cells [7]; [9]): 9.3 ± 2.5^(a) % | percentage of cells in S (DLD-1 cells [7]; [9]): 14.6 ± 3.2% | accumulation of dead cells in the pre-G1 phase vs. control (DLD-1 cells [7]; 48 h): 1.9 fold | percentage of cells in G0/G1 (DLD-1 cells [7]; [10]): 38.2 ± 4.3^(a) % | percentage of cells in G2/M (DLD-1 cells [7]; [10]): 12.0 ± 1.6^(a) % | percentage of cells in Pre G1 (DLD-1 cells [7]; [10]): 40.6 ± 5.2^(a) % | percentage of cells in S (DLD-1 cells [7]; [10]): 8.4 ± 0.6% | accumulation of dead cells in the pre-G1 phase vs. control (DLD-1 cells [7]; 72h): 9.4 fold
